Patent publication US5807852A, “Tricyclic amide and urea compounds useful for inhibition of G-protein function and for treatment of proliferative diseases” (Schering Corporation, priority 1995, dated 1998)

Target: T1, farnesyl protein transferase (FPT) (Rattus norvegicus, UniProt Q02293+Q04631)
T1 construct: were partially purified from rat brain by ammonium sulfate fractionation; from tissue; host or cells: rat brain
Experiment: Inhibition of farnesyl protein transferase (FPT), in vitro enzyme assay, Ras-CVLS farnesylation
Assay type: biochemical, rat (partially purified rat brain)
Conditions: Table 22
Description: Two forms of val^12 -Ha-Ras protein were prepared as substrates for these enzymes, differing in their carboxy terminal sequence. One form terminated in cysteine-valine-leucine-serine (Ras-CVLS) the other in cystein-valine-leucine-leucine (Ras-CVLL). Ras-CVLS is a substrate for the famesyl protein transferase while Ras-CVLL is a substrate for geranylgeranyl protein transferase I. The cDNAs encoding these proteins were constructed so that the proteins contain an amino-terminal extension of 6 histidine residues. Both proteins were expressed in Escherichia coli and purified using metal chelate affinity chromatography. The radiolabelled isoprenyl pyrophosphate substrates, [^3 H]farnesyl pyrophosphate and [^3 H]geranylgeranyl pyrophosphate, were purchased from DuPont/New England Nuclear.
The reaction was allowed to proceed for 30 minutes at room temperature and then stopped with 0.5 ml of 4% sodium dodecyl sulfate (SDS) followed by 0.5 ml of cold 30% trichloracetic acid (TCA). Samples were allowed to sit on ice for 45 minutes and precipitated Ras protein was then collected on GF/C filter paper mats using a Brandel cell harvester. Filter mats were washed once with 6% TCA, 2% SDS and radioactivity was measured in a Wallac 1204 Betaplate BS liquid scintillation counter. Percent inhibition was calculated relative to the DMSO vehicle control.

SMILES	IC50
CS(=O)(=O)c1cc(CC(=O)N2CCC(C3c4ccc(Cl)cc4CCc4cc(Br)cnc43)CC2)ccn1 (stereo not drawn) [Example 410-W]	1160 nM
O=C(Cc1ccnc(-n2ccnc2)c1)N1CCC(C2c3ccc(Cl)cc3CCc3cc(Br)cnc32)CC1 (stereo not drawn) [Example 410-T]	1800 nM
CSCC[C@H](N)C(=O)N1CCC(CC(=O)N2CCN(C3c4ccc(Cl)cc4CCc4cccnc43)CC2)CC1 (stereo partly drawn) [Example 433-B]	1890 nM
CSc1cc(CC(=O)N2CCC(C3c4ccc(Cl)cc4CCc4cc(Br)cnc43)CC2)ccn1 (stereo not drawn) [Example 410-V]	1170 nM
CN1CCN(c2cc(CC(=O)N3CCC(C4c5ccc(Cl)cc5CCc5cc(Br)cnc54)CC3)ccn2)CC1 (stereo not drawn) [Example 410-U]	5000 nM
C[C@H](N)C(=O)N1CCC(CC(=O)N2CCN(C3c4ccc(Cl)cc4CCc4cccnc43)CC2)CC1 (stereo partly drawn) [Example 433]	2500 nM
